Laboratory results from US6482802B1 (Endowment for Research in Human Biology, Inc., priority 1998, dated 2002).
Entries after “also recorded” stand apart in the source; their conditions may differ.

Experiments:
Human angiogenin = biological target: T1, Human angiogenin (Homo sapiens, UniProt P03950); assay: Ribonucleolytic activity of angiogenin, yeast tRNA substrate; format: biochemical
T1 construct: made in house; host or cells: Escherichia coli
Method: After incubation for 2 hr at 37° C., […] of 3.4% ice-cold perchloric acid was added, the mixture was vortexed, kept on ice for […] and centrifuged at 15,000×g for 10 min at 4° C. The absorbance of the supernatants was measured at 260 nm.

[1] = test system: nuclear translocation of bFGF in HUVE cells; assay: Nuclear translocation of 125I-bFGF in HUVE cells; format: cell-based, human; details: for bFGF Counts (nuclear fraction): 125I-bFGF 50 ng/ml, 0 μM: 18300 ± 200
Method: (§1) Inhibition of nuclear translocation of angiogenic factors in HUVE cells was performed in the following manner. […] The cell pellet was washed once with PBS and lysed with 0.5% triton X-100 in PBS. […] Radioactivity in the nuclear fraction was determined with a gamma counter.

[2] = test system: nuclear translocation of aFGF in HUVE cells; assay: Nuclear translocation of 125I-aFGF in HUVE cells; format: cell-based, human; details: for aFGF Counts (nuclear fraction): 125I-aFGF 50 ng/ml, 0 μM: 7800 ± 100
Method: as §1

[3] = test system: nuclear translocation of EGF in HUVE cells; assay: Nuclear translocation of 125I-EGF in HUVE cells; format: cell-based, human; details: for EGF Counts (nuclear fraction): 125I-EGF 50 ng/ml, 0 μM: 140 ± 20
Method: as §1

HUVE cells [4] = assay: aFGF-induced proliferation of HUVE cells; format: cell-based, human; details: for aFGF Cell No.: aFGF 10 ng/ml, 48 hrs, 0 μM: 73900 ± 2500
Method: (§2) The cells were incubated at 37° C. under humidified air containing 5% CO2 for 48 hrs. […] Cell numbers were determined with a Coulter counter.

HUVE cells [5] = assay: VEGF-induced proliferation of HUVE cells; format: cell-based, human; details: for VEGF Cell No.: VEGF 5 ng/ml, 48 hrs, 0 μM: 45100 ± 200
Method: as §2

[6] = test system: chorioallantoic membrane (CAM) of chick embryos; assay: CAM assay, VEGF-induced angiogenesis; format: in vivo; details: for % Positive: VEGF alone 63, water 21
Method: Angiogenesis was measured on the CAM by the method of Knighton et al. (Knighton et al., 1977, Br. J. Cancer 35:347-356) essentially as described (Fett et al., 1985, Biochemistry 24:5480-5486). Fertilized chicken eggs were kept at 18° C. for 2 days and then incubated in a humidified environment at 37° C. for 3 days. Albumin was aspirated from the embryos and after 24 hours, a “window” was cut through the shell and covered with clear tape. […] After 48-68 hours at 37° C., the growth of blood vessels was observed microscopically and recorded as either positive or negative. A positive response (i.e., an angiogenic response) has a typical “spokewheel” appearance.

T1 sequence (P03950 with tags, fused parts or gaps): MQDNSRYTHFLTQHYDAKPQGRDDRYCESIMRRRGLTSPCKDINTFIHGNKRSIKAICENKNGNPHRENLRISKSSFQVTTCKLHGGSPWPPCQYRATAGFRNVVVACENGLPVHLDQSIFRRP

Substance: neomycin
- ribonucleolytic activity of angiogenin, % of control (Human angiogenin; neomycin 5 μM): 87%
- ribonucleolytic activity of angiogenin, % of control (Human angiogenin; neomycin 10 μM): 105%
- ribonucleolytic activity of angiogenin, % of control (Human angiogenin; neomycin 50 μM): 88%
- bFGF % Inhib. of nuclear translocation ([1]; neomycin 10 μM): 13%
- bFGF Counts (nuclear fraction) ([1]; neomycin 10 μM): 15900 ± 100 cpm
- bFGF % Inhib. of nuclear translocation ([1]; neomycin 50 μM): 22%
- bFGF Counts (nuclear fraction) ([1]; neomycin 50 μM): 14300 ± 100 cpm
- bFGF % Inhib. of nuclear translocation ([1]; neomycin 100 μM): 26%
- bFGF Counts (nuclear fraction) ([1]; neomycin 100 μM): 13500 ± 300 cpm
- bFGF % Inhib. of nuclear translocation ([1]; neomycin 150 μM): 32%
- bFGF Counts (nuclear fraction) ([1]; neomycin 150 μM): 12400 ± 200 cpm
- bFGF % Inhib. of nuclear translocation ([1]; neomycin 200 μM): 40%
- bFGF Counts (nuclear fraction) ([1]; neomycin 200 μM): 10900 ± 100 cpm
- aFGF % Inhib. of nuclear translocation ([2]; neomycin 10 μM): 15%
- aFGF Counts (nuclear fraction) ([2]; neomycin 10 μM): 6600 ± 100 cpm
- aFGF % Inhib. of nuclear translocation ([2]; neomycin 50 μM): 26%
- aFGF Counts (nuclear fraction) ([2]; neomycin 50 μM): 5800 ± 100 cpm
- aFGF % Inhib. of nuclear translocation ([2]; neomycin 100 μM): 32%
- aFGF Counts (nuclear fraction) ([2]; neomycin 100 μM): 5300 ± 100 cpm
- aFGF % Inhib. of nuclear translocation ([2]; neomycin 150 μM): 38%
- aFGF Counts (nuclear fraction) ([2]; neomycin 150 μM): 4800 ± 100 cpm
- aFGF % Inhib. of nuclear translocation ([2]; neomycin 200 μM): 43%
- aFGF Counts (nuclear fraction) ([2]; neomycin 200 μM): 4500 ± 200 cpm
- EGF % Inhib. of nuclear translocation ([3]; neomycin 10 μM): 0%
- EGF Counts (nuclear fraction) ([3]; neomycin 10 μM): 140 ± 20 cpm
- EGF % Inhib. of nuclear translocation ([3]; neomycin 50 μM): 0%
- EGF Counts (nuclear fraction) ([3]; neomycin 50 μM): 140 ± 20 cpm
- EGF % Inhib. of nuclear translocation ([3]; neomycin 100 μM): 7%
- EGF Counts (nuclear fraction) ([3]; neomycin 100 μM): 130 ± 30 cpm
- EGF % Inhib. of nuclear translocation ([3]; neomycin 150 μM): 14%
- EGF Counts (nuclear fraction) ([3]; neomycin 150 μM): 120 ± 10 cpm
- EGF % Inhib. of nuclear translocation ([3]; neomycin 200 μM): 29%
- EGF Counts (nuclear fraction) ([3]; neomycin 200 μM): 100 ± 20 cpm
- aFGF Inhib. % of cell proliferation (HUVE cells [4]; neomycin 25 μM): 25%
- aFGF Cell No. (HUVE cells [4]; neomycin 25 μM): 60000 ± 400
- aFGF Inhib. % of cell proliferation (HUVE cells [4]; neomycin 50 μM): 42%
- aFGF Cell No. (HUVE cells [4]; neomycin 50 μM): 51300 ± 400
- aFGF Inhib. % of cell proliferation (HUVE cells [4]; neomycin 100 μM): 50%
- aFGF Cell No. (HUVE cells [4]; neomycin 100 μM): 46700 ± 800
- aFGF Inhib. % of cell proliferation (HUVE cells [4]; neomycin 150 μM): 63%
- aFGF Cell No. (HUVE cells [4]; neomycin 150 μM): 41000 ± 1000
- aFGF Inhib. % of cell proliferation (HUVE cells [4]; neomycin 200 μM): 68%
- aFGF Cell No. (HUVE cells [4]; neomycin 200 μM): 37500 ± 200
- IC50 (HUVE cells [4]; read-out: IC50, aFGF-induced proliferation of endothelial cells): ~100 µM
- VEGF Inhib. % of cell proliferation (HUVE cells [5]; neomycin 25 μM): 14%
- VEGF Cell No. (HUVE cells [5]; neomycin 25 μM): 41000 ± 300
- VEGF Inhib. % of cell proliferation (HUVE cells [5]; neomycin 50 μM): 20%
- VEGF Cell No. (HUVE cells [5]; neomycin 50 μM): 38900 ± 1300
- VEGF Inhib. % of cell proliferation (HUVE cells [5]; neomycin 100 μM): 22%
- VEGF Cell No. (HUVE cells [5]; neomycin 100 μM): 36400 ± 400
- VEGF Inhib. % of cell proliferation (HUVE cells [5]; neomycin 150 μM): 36%
- VEGF Cell No. (HUVE cells [5]; neomycin 150 μM): 35000 ± 200
- VEGF Inhib. % of cell proliferation (HUVE cells [5]; neomycin 200 μM): 34%
- VEGF Cell No. (HUVE cells [5]; neomycin 200 μM): 33800 ± 200
- % Inhibition of angiogenic activity ([6]; VEGF 10 ng + neomycin 200 ng): 10%
- Positive eggs ([6]; VEGF 10 ng + neomycin 200 ng, 24 total eggs): 14
- % Positive ([6]; VEGF 10 ng + neomycin 200 ng): 58%
- % Inhibition of angiogenic activity ([6]; VEGF 10 ng + neomycin 1000 ng): 24%
- % Positive ([6]; VEGF 10 ng + neomycin 1000 ng (1 μg)): 52%
- Positive eggs ([6]; VEGF 10 ng + neomycin 1000 ng, 27 total eggs): 14
- inhibition of angiogenic activity of VEGF on the CAM ([6]; VEGF 10 ng, neomycin 200 ng and 1 μg): did not significantly inhibit; also recorded: not significantly inhibited
- reduction of angiogenic activity of VEGF on the CAM ([6]; dosage as high as 900 ng per embryo): did not significantly reduce
